In US20240426776A1, “RAPID DIFFERENTIATION OF ANTIBIOTIC-SUSCEPTIBLE AND -RESISTANT BACTERIA THROUGH MEDIATED EXTRACELLULAR ELECTRON TRANSFER” (priority 2021, published 2024):
In brackets after ≈: the same amount, converted by molar mass. Several values for one entry are separate records, joined by “and”; a condition that tells them apart may be missing. Identical values can stand only once. Like-named read-outs stand apart in the source and are kept apart here. Marks after values point to notes of the source that are not given here.

How the values were obtained:
[1] = system: Escherichia coli (strains 61 and 77); conditions: cited from earlier work
[2] = system: Acinetobacter baumannii (strains 35, 78, 83, and 102); conditions: cited from earlier work
[3] = system: Staphylococcus aureus (strains 29213 and 43300); assay: READAS electrochemical current response with PMS mediator (ASIn); assay type: cell-based; conditions: for ASIn (antibiotic susceptibility index), single replicates: tobramycin 10× breakpoint (160 μg/mL), ASI10, 15 μM PMS, 0.1 OD600
Procedure: Each measurement was replicated at least four times.
(S. aureus experiments) or 37° C. (all others) MH media.
The current responses measured follows a sigmoidal curve structure.
As a second example method of operation, the S. aureus strains selected from Table 2 were assessed. Initially, a 2×CLSI resistance breakpoint concentrations for two antibiotics oxacillin (12 μg/mL) and tobramycin (32 μg/mL) were used for the example method of operation. The ASI2<0.4 and it was concluded that the concentration of the antibiotics was insufficient to classify the strains as antibiotic-susceptible or -resistant. S. aureus was then treated with 4×, 6×, 8×, 10×, and 20× the breakpoint concentration of oxacillin and was compared to the control as depicted in FIG. 8A. […] S. aureus was also treated with 4× and 10× the breakpoint concentration of tobramycin and was compared to the control depicted in FIG. 8B. […] The efficacy of antibiotic was proportional to the concentration when a high cell density (1.1×10^8 CFU/mL) was used.
The ASIn analysis time for classifying the strains as resistant or susceptible for tobramycin treatment was 33-78 min which was 30 min less than needed for detecting oxacillin susceptibility which required 60-96 min.

[4] = system: Klebsiella pneumoniae (strains 34 and 115); assay: microbe, parasite or virus in culture; conditions: for MIC: Klebsiella pneumoniae, MH media, 16-18 h, 37° C.
Procedure: Testing for S. aureus susceptibility to oxacillin differed with incubation at 30° C. for 18-24 h in MH media supplemented with 2% NaCl.
Values listed in Table 2 below include the estimated minimum inhibitory concentration from this study (μg/mL), the determination of(S) sensitive or (R) resistant microbes according to CLSI criteria, and the CLSI guidelines (μg/mL) for the species being tested. Empty cells were not evaluated.

[5] = system: Gram-negative 1 AR55 and Gram-negative 2 AR58; assay: Standard procedure confirming blinded test (susceptibility, MIC, analysis time); assay type: cell-based; parameters: key to Standard procedure susceptibility or resistance (second symbol of cell): S: The standard procedure established susceptibility or resistance; R: The standard procedure established susceptibility or resistance
Procedure: (§1) Both Gram-positive strains were correctly classified using 2×(12 μg/mL oxacillin) in <120 min (97±45 min and 103±33 min). The Gram-negative strains were also correctly classified after increasing concentrations of imipenem from 2× to 20×(12 to 120 μg/mL imipenem). […] These phenotypic results were confirmed with results of standard procedure known to those skilled in the art and are included in Table 4 below, wherein READAS(S) susceptibility was defined by an ASIn≥0.4; (R) resistant was defined by an ASIn<0.4; analysis time shown in minutes. The standard procedure established susceptibility or resistance, MIC in μg/mL, and analysis time shown in hours.

[6] = system: Gram-negative 1 AR55 and Gram-negative 2 AR58; assay: READAS operator blinded test; assay type: cell-based; conditions: for ASIn: imipenem increased from 2× to 20× (12 to 120 μg/mL), OD600=0.1; for READAS susceptibility (first symbol of cell): imipenem up to 20× (120 μg/mL)
Procedure: Tests were conducted for which the species or resistance phenotype was not known beyond the fact that one set was a Gram-positive and the other Gram-negative, and the antibiotics to be tested were oxacillin and imipenem, respectively. The isolates were provided as coded streak plates. Because the species were unknown, the breakpoint concentration of oxacillin and imipenem were estimated from the known breakpoints of the four previously tested strains (as shown in Table 1; 6 μg/mL for oxacillin, S. aureus and 6 μg/mL imipenem for Gram-negative strains). Following the decision methodology for determining antibiotic susceptibility and resistance of READAS, the strains were first tested with 2× the resistance breakpoint concentration (12 μg/mL oxacillin or imipenem) and the ASI2 was measured. This was increased up to 24× the resistance breakpoint concentration. If ASI2≥0.4 then the strain was considered susceptible. […] If neither strain achieved an ASI2≥0.4, 24× the resistance breakpoint concentration was tested and the ASI24 was measured.
As another example method of operation, operator blinded tests were conducted using susceptible and resistant strains of Gram-positive and -negative bacteria. Because the species identification was unknown, […] oxacillin was chosen as the estimated resistance breakpoint for the Gram-positive strain and 6 μg/mL imipenem was initially chosen as the resistance breakpoint for the Gram-negative strain. The stains selected for this example method of operation include Gram-positive 1 ATCC 29213, Gram-positive 2 BAA-1026, Gram-negative 1 AR55 and Gram-negative 2 AR58 with cultures of OD600=0.1, for simplicity.
as §1

Row | Compound | CLSI guidelines (resistance breakpoint) for the species [1] [µg/mL] | CLSI guidelines (resistance breakpoint) for the species [2] [µg/mL] | current response with increasing antibiotic concentration ([3]; oxacillin 4×, 6×, 8×, 10×, 20× breakpoint (FIG. 8A), tobramycin 4× and 10× (FIG. 8B), […]10^8 CFU/mL) | ASIn (antibiotic susceptibility index), single replicates ([3]; strain 29213 (susceptible)) | average ASI10 (±SE) ([3]; strain 43300 (resistant), tobramycin 10× (160 μg/mL)) | ASIn (antibiotic susceptibility index), single replicates ([3]; strain 43300 (resistant)) | MIC ([4]; read-out: estimated minimum inhibitory concentration from this study, strain 34) [µg/mL] | MIC ([4]; read-out: estimated minimum inhibitory concentration from this study, strain 115) [µg/mL] | sensitive or resistant according to CLSI criteria ([4]; strain 34) | sensitive or resistant according to CLSI criteria ([4]; strain 115) | MIC ([5]; Gram-negative 1 (AR55)) [µg/mL] | Standard procedure susceptibility or resistance (second symbol of cell) ([5]; Gram-negative 1 (AR55)) | MIC ([5]; Gram-negative 2 (AR58)) [µg/mL] | Standard procedure susceptibility or resistance (second symbol of cell) ([5]; Gram-negative 2 (AR58)) | ASIn ([6]; Gram-negative 1 (AR55)) | READAS susceptibility (first symbol of cell) ([6]; Gram-negative 1 (AR55)) | ASIn ([6]; Gram-negative 2 (AR58)) | READAS susceptibility (first symbol of cell) ([6]; Gram-negative 2 (AR58))
1 | NC[C@H]1O[C@H](O[C@H]2[C@H](O)[C@@H](O[C@H]3O[C@H](CO)[C@@H](O)[C@H](N)[C@H]3O)[C@H](N)C[C@@H]2N)[C@H](N)C[C@@H]1O [Tobramycin, tobramycin] | 16 | 16 | decreased the current magnitude to ASIn≥0.4 and increased the response time | 0.52 and 0.6 and 0.16 and 0.34 | −0.10±0.14 | 0.12 and −0.01 and −0.42 |  |  |  |  |  |  |  |  |  |  |  | 
2 | C[C@@H](O)[C@H]1C(=O)N2C(C(=O)O)=C(SCCN=CN)C[C@H]12 [Imipenem, imipenem] |  |  |  |  |  |  | 2 (≈ 6.68 µM) | 64 (≈ 214 µM) | S | R | ≥ 16 | R/R | ≤ 0.25 | S/S | 0.1 ± 0.23^c | R/R ((R) resistant was defined by an ASIn<0.4) | 0.99 ± 0.01^c | S/S (READAS(S) susceptibility was defined by an ASIn≥0.4)
